# Activity calls are given as the source filed them. No cut-off for these calls is given here.
# Legend:
# [1] = molecular target: T1, Gamma-aminobutyric acid receptor subunit alpha-1/beta-3/gamma-2 (Mus musculus, UniProt P22723+P62812+P63080); assay: Negative allosteric modulation of recombinant mouse alpha1beta3gamma2 GABAA receptor expressed in GFP tagged HEK293 cells at peak current by whole-cell voltage clamp electrophysiological analysis; format: cell-based
# [2] = molecular target: T1, Gamma-aminobutyric acid receptor subunit alpha-1/beta-3/gamma-2; assay: Negative allosteric modulation of recombinant mouse alpha1beta3gamma2 GABAA receptor expressed in GFP tagged HEK293 cells at steady state current by whole-cell voltage clamp electrophysiological analysis; format: cell-based
# [3] = molecular target: T2, Gamma-aminobutyric acid receptor subunit alpha-1/beta-3/gamma-2 (Mus musculus) (UniProt P22723+P62812+P63080); assay: Negative allosteric modulation of recombinant mouse alpha1beta3gamma2 GABAA receptor expressed in GFP tagged HEK293 cells at 100 uM by whole-cell voltage clamp electrophysiological analysis; format: cell-based; settings: filed as negative allosteric modulator
# [4] = molecular target: T2, Gamma-aminobutyric acid receptor subunit alpha-1/beta-3/gamma-2 (Mus musculus); assay: Positive allosteric modulation of recombinant mouse alpha1beta3gamma2 GABAA receptor expressed in GFP tagged HEK293 cells assessed as maximum GABA current at 100 uM by whole-cell voltage clamp electrophysiological analysis; format: cell-based; settings: filed as positive allosteric modulator
# [5] = Solubility of the compound at 100 uM; format: physicochemical
# [6] = molecular target: T2, Gamma-aminobutyric acid receptor subunit alpha-1/beta-3/gamma-2 (Mus musculus); assay: Negative allosteric modulation of recombinant mouse alpha1beta3gamma2 GABAA receptor expressed in GFP tagged HEK293 cells at 100 uM by whole-cell voltage clamp electrophysiological analysis relative control; format: cell-based; settings: filed as negative allosteric modulator
# [7] = molecular target: T3, GABA-A receptor; anion channel (Rattus norvegicus) (UniProt O09028+P15431+P18506+P18508+P19969+P20236+P23574+P23576+P28471+P28473+P30191+P62813+P63079+P63138+Q91ZM7+Q9ES14); assay: Positive allosteric modulation of GABAA receptor in Sprague-Dawley rat Hippocampal neuron assessed as reduction in spontaneous IPSC amplitude at 10 uM by whole-cell voltage-clamp electrophysiological analysis; format: cell-based; settings: filed as positive allosteric modulator
# [8] = molecular target: T3, GABA-A receptor; anion channel (Rattus norvegicus); assay: Positive allosteric modulation of GABAA receptor in Sprague-Dawley rat Hippocampal neuron assessed as prolongation of spontaneous IPSC decay time at 10 uM by whole-cell voltage-clamp electrophysiological analysis; format: cell-based; settings: filed as positive allosteric modulator
# [9] = molecular target: T3, GABA-A receptor; anion channel (Rattus norvegicus); assay: Positive allosteric modulation of GABAA receptor in Sprague-Dawley rat Hippocampal neuron assessed as potentiation of tonic holding current at 30 uM by whole-cell voltage-clamp electrophysiological analysis; format: cell-based; settings: filed as positive allosteric modulator
# [10] = molecular target: T3, GABA-A receptor; anion channel (Rattus norvegicus); assay: Positive allosteric modulation of GABAA receptor in Sprague-Dawley rat Hippocampal neuron assessed as decrease in spontaneous IPSC frequency at 10 uM by whole-cell voltage-clamp electrophysiological analysis; format: cell-based; settings: filed as positive allosteric modulator
# HEK293 [11] = assay: Positive allosteric modulation of recombinant mouse alpha1 Q241L mutant/beta3/gamma2 GABAA receptor expressed in GFP tagged HEK293 cells by whole-cell voltage clamp electrophysiological analysis; format: cell-based
# [12] = molecular target: T2, Gamma-aminobutyric acid receptor subunit alpha-1/beta-3/gamma-2 (Mus musculus); assay: Positive allosteric modulation of recombinant wild type mouse alpha1beta3gamma2 GABAA receptor expressed in GFP tagged HEK293 cells at 100 uM by whole-cell voltage clamp electrophysiological analysis; format: cell-based
# HEK293 [13] = assay: Negative allosteric modulation of recombinant mouse alpha1 Q241L mutant/beta3/gamma2 GABAA receptor expressed in GFP tagged HEK293 cells assessed as inhibition of peak current at 100 uM by whole-cell voltage clamp electrophysiological analysis; format: cell-based
# HEK293 [14] = assay: Positive allosteric modulation of recombinant mouse alpha1 Q241L mutant/beta3/gamma2 GABAA receptor expressed in GFP tagged HEK293 cells at 100 uM by whole-cell voltage clamp electrophysiological analysis; format: cell-based
# HEK293 [15] = assay: Negative allosteric modulation of recombinant mouse alpha1 Q241L mutant/beta3/gamma2 GABAA receptor expressed in GFP tagged HEK293 cells assessed as inhibition of steady-state level at 100 uM by whole-cell voltage clamp electrophysiological analysis; format: cell-based
# [16] = molecular target: T2, Gamma-aminobutyric acid receptor subunit alpha-1/beta-3/gamma-2 (Mus musculus); assay: Positive allosteric modulation of recombinant mouse alpha1beta3gamma2 GABAA receptor expressed in GFP tagged HEK293 cells assessed as maximum GABA current by measuring maximum activation at 100 uM by whole-cell voltage clamp electrophysiological analysis relative to control; format: cell-based; settings: filed as positive allosteric modulator
# T1 sequence (P22723 whole entry): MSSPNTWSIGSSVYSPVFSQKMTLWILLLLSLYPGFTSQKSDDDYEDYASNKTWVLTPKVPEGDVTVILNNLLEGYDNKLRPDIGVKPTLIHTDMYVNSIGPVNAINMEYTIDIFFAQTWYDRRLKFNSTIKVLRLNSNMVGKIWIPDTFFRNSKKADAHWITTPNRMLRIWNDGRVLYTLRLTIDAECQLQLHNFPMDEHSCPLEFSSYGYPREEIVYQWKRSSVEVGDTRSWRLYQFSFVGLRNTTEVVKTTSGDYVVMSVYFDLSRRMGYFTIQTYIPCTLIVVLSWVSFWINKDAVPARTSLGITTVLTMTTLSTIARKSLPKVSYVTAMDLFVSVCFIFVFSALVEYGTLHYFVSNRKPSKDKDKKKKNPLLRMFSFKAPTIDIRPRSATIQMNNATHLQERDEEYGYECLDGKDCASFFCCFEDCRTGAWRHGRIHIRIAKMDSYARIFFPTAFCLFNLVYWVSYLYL
# T1 sequence (P62812 whole entry): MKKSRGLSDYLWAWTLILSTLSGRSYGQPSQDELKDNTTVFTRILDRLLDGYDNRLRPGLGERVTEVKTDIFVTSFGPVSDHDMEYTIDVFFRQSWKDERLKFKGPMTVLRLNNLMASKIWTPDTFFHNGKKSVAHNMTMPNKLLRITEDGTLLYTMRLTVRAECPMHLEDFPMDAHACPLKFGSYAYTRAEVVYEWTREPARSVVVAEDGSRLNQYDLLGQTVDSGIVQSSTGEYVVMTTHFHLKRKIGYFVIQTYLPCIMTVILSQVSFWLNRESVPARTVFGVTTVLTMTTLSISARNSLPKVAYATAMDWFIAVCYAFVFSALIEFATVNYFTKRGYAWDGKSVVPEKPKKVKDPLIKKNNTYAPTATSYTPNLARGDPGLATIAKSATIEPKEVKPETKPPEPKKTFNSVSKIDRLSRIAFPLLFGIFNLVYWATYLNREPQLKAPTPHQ
# T1 sequence (P63080 whole entry): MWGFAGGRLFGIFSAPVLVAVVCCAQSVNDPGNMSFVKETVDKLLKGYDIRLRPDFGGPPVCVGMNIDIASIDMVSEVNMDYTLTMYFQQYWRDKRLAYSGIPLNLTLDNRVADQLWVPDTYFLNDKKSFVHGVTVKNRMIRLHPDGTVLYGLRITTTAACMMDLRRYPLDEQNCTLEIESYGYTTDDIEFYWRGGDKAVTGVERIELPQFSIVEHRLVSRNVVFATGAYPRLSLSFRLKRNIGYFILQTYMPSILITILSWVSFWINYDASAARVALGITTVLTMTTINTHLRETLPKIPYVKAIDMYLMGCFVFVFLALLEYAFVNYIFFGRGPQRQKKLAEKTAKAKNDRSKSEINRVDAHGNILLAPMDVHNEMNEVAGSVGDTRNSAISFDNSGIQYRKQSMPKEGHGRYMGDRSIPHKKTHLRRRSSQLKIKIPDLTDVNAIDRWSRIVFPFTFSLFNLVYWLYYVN
Compound,IC50 [1] [µM],IC50 [2] [µM],Activity [3],Activity [4],solubility [5],Activity [6] [%],further results
CC(=O)[C@H]1CC[C@H]2[C@@H]3CC=C4C[C@@H](OS(=O)(=O)O)CC[C@]4(C)[C@H]3CC[C@]12C,292,3.2,,,,,
O[C@H]1CC[C@@H](c2ccc3c(c2)CCC3)CC1,55,18,Active,Active,soluble,,
O[C@H]1CC[C@H](c2ccc3c(c2)CCC3)CC1,59,14,Active,Active,soluble,,
C[C@@]12CC/C(=C/CO)C[C@H]1CCc1ccccc12,114,23,Active,,soluble,,
CC(=O)c1cccc(C2=CC[C@@]3(C)[C@H](CC[C@@H]3O)C2)c1,,,,,,,Activity [7]: Active; Activity [8]: Active; Activity [9]: Active; Activity [10]: Active; Activity (HEK293 [11]): inactive
CC(=O)c1cccc(C2=C[C@H]3CC[C@H](O)[C@@]3(C)CC2)c1,,,,,,,Activity (HEK293 [11]): inactive

# Second part, led by results:
IC50 [1] [µM],IC50 [2] [µM],Activity [3],Activity [4],solubility [5],Activity [6] [%],Compound,further results
10,10,Active,Active,soluble,100,C[C@]12CC[C@H](OS(=O)(=O)O)CC1=CCc1cc(Br)ccc12,
190,53,Active,Active,soluble,,O=S(=O)(O)O[C@H]1CC[C@@H](c2ccc3c(c2)CCC3)CC1,
148,73,Active,,soluble,,O=S(=O)(O)O[C@H]1CC[C@H](c2ccc3c(c2)CCC3)CC1,
128,54,Active,,soluble,,C[C@]12CC[C@H](c3ccccc3)C[C@H]1CC[C@@H]2OS(=O)(=O)O (mixture of isomers),
15,12,Active,,soluble,100,C[C@@]12CCC(CCOS(=O)(=O)O)C[C@H]1CCc1ccccc12 (mixture of isomers),Activity [12]: inactive; Activity (HEK293 [13]): inactive; Activity (HEK293 [14]): inactive; Activity (HEK293 [15]): inactive
37,20,Active,Active,soluble,100,C[C@]12CC[C@H](c3ccccc3)C[C@H]1CC[C@@H]2O (mixture of isomers),Emax [16]: 43%
29,14,Active,,soluble,100,C[C@@]12CCC(CCO)C[C@H]1CCc1ccccc12 (mixture of isomers),Activity [12]: inactive; Activity (HEK293 [13]; filed as negative allosteric modulator): Active; Activity (HEK293 [14]): inactive; Activity (HEK293 [15]): inactive
76,42,Active,Active,soluble,,C[C@]12CC[C@@H](c3ccccc3)C[C@H]1CC[C@@H]2OS(=O)(=O)O (mixture of isomers),
27,21,Active,Active,soluble,100,C[C@]12CC[C@@H](c3ccccc3)C[C@H]1CC[C@@H]2O (relative stereo),

# Source: ChEMBL document CHEMBL6153055, “Design, Synthesis, and Pharmacological Evaluation of Nonsteroidal Tricyclic Ligands as Modulators of GABAA Receptors” (J Med Chem, 2025)
